# Measured values published in US7745465B2, “Method of enhancing cellular production of molecular chaperone, hydroxylamine derivatives useful for enhancing the chaperone production and the preparation thereof” (CytRx Corporation, priority 1995, dated 2010).
# How the values were obtained:
# [1] = test system: SPRD male rats; experiment: Cardiac ischemia (LAD occlusion 5 min, reperfusion 10 min): ventricular tachycardia, fibrillation, survival; type: in vivo, rat
# Protocol: Experiments were carried out in SPRD male rats. The animals were anaesthetized with Nembutal in a dose of 60 mg/kg/i.p. After opening the chest and pericardium, the LAD coronary artery was occluded for 5 minutes and then the incidence and duration of ventricular tachycardia and fibrillation in the reperfusion period (10 minutes) were investigated. Tissue samples were collected from the left and right ventricles.
# [2] = test system: Hsp90; experiment: Western blot of hsp90 in heat shocked H9c2 cells; type: cell-based, rat
# Protocol: (§1) Experiments set forth in this section were conducted to determine whether N-[2-hydroxy-3-(1-piperidinyl)propoxy]-3-pyridinecarboximidoyl chloride maleate acts to increase the expression of molecular chaperon by a cell. The accumulation of different heat shock proteins subsequent to a period of exposure to heat shock alone, and to heat shock in combination with N-[2-hydroxy-3-(1-piperidinyl)propoxy]-3-pyridinecarboximidoyl chloride maleate administration, was examined by adding 10^−5 M of N-[2-hydroxy-3-(1-piperidinyl)propoxy]-3-pyridinecarboximidoyl chloride maleate before, during, or immediately after hyperthermic treatment of heart myogenic cells (H9c2 cells).
# (§2) The embryonic rat heart-derived cell line H9c2 was obtained from European Collection of Animal cell Cultures (ECACC) (88092904). The cells were maintained at 37° C. in Dulbecco's modified Eagle's medium (DMEM) supplemented with 10% fetal calf serum (GIBCO) in JOUAN C02 thermostat (5% CO2).
# (§3) Heat shock was performed at 43° C. in CO2 thermostat for the given time intervals (20, 40, 60, 90 and 120 min.). Cells were then taken back to 37° C. for 6 hours and proteins were extracted for SDS-PAGE. […]
# (§4) Protein concentration was determined from 5:1 samples by the Bradford assay (M. M. Braford, Anal. Biochem., 72: 248-254 (1976)) in three parallel. […]
# [3] = test system: hsp72; experiment: HgCl2 stress induced hsp72 level in U-937 cells; type: cell-based, human; conditions: 10^−5 M, 0.5 μg/ml HgCl2, 6 hours
# Protocol: From the applied cells the 3T3 and L-929 mouse fibroblasts were cultured in MEM medium and grew in monolayer, the U-937 human leukemia cells were maintained in RPMI-1640 medium, in suspension culture, while the HeLa human epithelial cells were cultured in DMEM medium and in monolayer form. Cell cultures were maintained as described in example 6.2 (a) with the difference that cells were cultured in the above mentioned culture mediums.
# Experiments were carried out applying stress before and after the drug treatment. Stress was provoked by heat, by chemical agent, HgCl2 treatment. The test compounds were applied in the treatments at the 10^−5 M concentration.
# These experiments were performed on HeLa, human epithelial and U-937, human leukemia cells using HgCl2 to induce stress response. Drug treatment was carried out before cells were exposed to the stress. Test cultures were prepared and treatments were performed as in the experiments with the 3T3 cells. After the drug treatment cells were incubated at 37° C. for 15 min. than all the cultures except two (non stressed control) were exposed to 0.5 μg/ml concentration of HgCl2 and the incubation was followed. The induced amount of hsp72 was measured 6 hours after the exposure to stress.
# [4] = test system: Hsp72; experiment: Western blot of hsp72 in heat shocked H9c2 cells; type: cell-based, rat
# Protocol: as §1, §2, §3, §4
# [5] = 0.5-, 0.75-, 1.0 mg/kg i.v. 5 min. before the occlusion
smiles,measurement,setting,value
O=C(O)/C=C\C(=O)O.OC(CON=C(Cl)c1cccnc1)CN1CCCCC1 (centres unmarked) [N-[2-hydroxy-3-(1-piperidinyl)-propoxy]3-pyridinecarboximidoyl chloride maleate],survival of reperfusion after the 5 min. occlusion,"[1]; 100 mg/kg p.o., all control animals (n=6) died",survived the reperfusion
same,mean duration of ventricular tachycardia,[1]; [5],reduced significantly
same,survival rate (preventing ventricular fibrillation),[1]; [5],improved the survival rate
same,level of Hsp90 increased,"[2]; added before the heat stress, 20 min. heat treatment",about fivefold
same,effect on HSP90 level,[2]; added following 43° C. 60 min. treatment,as effective (if not more) as if added before high temperature stress
same,increase of the stress induced hsp72 level relative to the stress exposed control,[3],more than 20%
same,effect on hsp72 level,[4]; added during the recovery phase,also effective though to a lesser degree
same,hsp72 level increased when comparing to 37° C. samples,"[4]; administration before heat stress, 60 min. heat stress",about 50 times
